Some test systems named below: LOX IMVI melanoma; OVCAR-4 ovarian; MDA-MB-231 breast; HCT-116 colon; SK-OV-3 ovarian; HCT-15 colon; HL-60(TB) leukemia; UACC-257 melanoma; NCI-H226 lung; EKVX NSCLC.
Assay in all cases: DTP human tumour cell line panel, 48 h

Values joined by “and” are separate entries in the source; they are usually repeats but may differ in a detail not shown here. Identical values can stand only once.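 Protocol summary: plate cells (96-well), add compound at 5 concentrations, incubate 48 h, interpolate endpoints linearly. GI50 = concentration required for 50% inhibition of growth. TGI marks complete inhibition of growth.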 A value given as a limit tells only on which side of the number the result lay.

Regarding `CCNCCNc1cc(-c2ccc(Cl)cc2)c(C#N)c2nc3ccccc3n12`, the GI50 in the experiment with LOX IMVI melanoma was 1.52 µM; with OVCAR-4 ovarian, 1.64 µM; in the experiment with MDA-MB-231 breast, 1.92 µM; with HCT-116 colon, 1.27 µM; with SK-OV-3 ovarian, 1.85 µM; in the experiment with HCT-15 colon, 1.25 µM. Moreover, the GI50 in the experiment on HL-60(TB) leukemia was 1.65 µM; in the experiment with UACC-257 melanoma it was 2.18 µM; in the experiment with NCI-H226 lung, 1.79 µM; in the experiment on EKVX NSCLC it was 1.6 µM. Besides, the TGI in the experiment with LOX IMVI melanoma was 2.93 µM; with OVCAR-4 ovarian, 4.09 µM; in the experiment on MDA-MB-231 breast, 3.58 µM; with HCT-116 colon it was 2.59 µM; in the experiment on SK-OV-3 ovarian it was 3.47 µM; in the experiment with HCT-15 colon it was 2.64 µM. The TGI in the experiment on HL-60(TB) leukemia amounted to 3.65 µM; with UACC-257 melanoma, 3.92 µM; in the experiment on NCI-H226 lung, 4.31 µM; with EKVX NSCLC it was 3.31 µM.
In the case of `CC1/C=C/C=C/CC/C=C/C=C/C=C/C=C/C(OC2OC(C)C(O)C(N)C2O)CC2OC(CC(O)C(O)CCC(O)CC(O)CC(O)CC(=O)OC(C)C(C)C1O)CC(O)C2C(=O)O` (stereo not drawn), the GI50 with LOX IMVI melanoma was 24.1 mg/L; with OVCAR-4 ovarian it was 23.9 mg/L; in the experiment with MDA-MB-231 breast, 29.4 mg/L; with HCT-116 colon, 37.7 mg/L; in the experiment on SK-OV-3 ovarian it was 47.1 mg/L; in the experiment on HCT-15 colon, 43.8 mg/L. Moreover, the GI50 with UACC-257 melanoma was 28.9 mg/L; in the experiment with NCI-H226 lung, 28.7 mg/L. Besides, the total growth inhibition concentration (TGI) in the experiment on LOX IMVI melanoma is 33.1 µM and 47.9 µg/mL; with OVCAR-4 ovarian, 29.4 µM and 52.5 µg/mL; in the experiment on MDA-MB-231 breast it was 39.4 µM and 69.2 µg/mL; with HCT-116 colon, 32.1 µM and 112 µg/mL; in the experiment with SK-OV-3 ovarian it was 44.4 µM and 136 µg/mL; in the experiment on HCT-15 colon it was 82.2 µM and 150 µg/mL. The concentration for total growth inhibition (TGI) in the experiment on HL-60(TB) leukemia is 45.1 µM; in the experiment on UACC-257 melanoma it was 32.7 µM and 53.8 µg/mL; with NCI-H226 lung, 28.3 µM and 53.6 µg/mL; in the experiment with EKVX NSCLC, 30.9 µM.
Consider `O=c1oc2ccccc2cc1-c1ccc([N+](=O)[O-])cc1`, for which the TGI in the experiment on LOX IMVI melanoma, with OVCAR-4 ovarian, in the experiment with MDA-MB-231 breast, with HCT-116 colon, in the experiment on SK-OV-3 ovarian and with HCT-15 colon was greater than 100 µM each time. Further, the TGI with HL-60(TB) leukemia, with UACC-257 melanoma, in the experiment on NCI-H226 lung and in the experiment on EKVX NSCLC was greater than 100 µM throughout.
Turning to `C=C1C(=O)OC2C1C(OC(=O)/C(C)=C/C)CC(O)(CCl)C1C(OC(C)=O)C=C(C)C21O` (stereo not drawn), the TGI is 20.7 µM with LOX IMVI melanoma; 33.5 µM in the experiment on OVCAR-4 ovarian; 38.1 µM in the experiment with MDA-MB-231 breast; 20.8 µM in the experiment on HCT-116 colon; greater than 100 µM in the experiment on SK-OV-3 ovarian; 21.7 µM in the experiment on HCT-15 colon. Besides, the TGI in the experiment on HL-60(TB) leukemia is 9.39 µM; in the experiment on UACC-257 melanoma, 34.1 µM; in the experiment on NCI-H226 lung it was greater than 61.3 µM; in the experiment on EKVX NSCLC it was 24.7 µM.
